Laboratory results: patent US20250092036A1, “COMPOUNDS AND COMPOSITIONS FOR MODULATING THE ACTIVITY OF ERK” (Novartis AG, priority 2023, published 2025)
Read-outs that look alike come from different tables or passages of the source.

Assays:
[1] = biological target: T1, ERK2[2-360(p-T185/p-Y187)]-Avi (Homo sapiens, UniProt P28482); test: Biochemical assay (HTRF competition assay); assay type: binding; conditions: HTRF competition with Example 15 probe, overnight at RT; read-out: Biochemical qualified AC50
T1 construct: 400 pM ERK2[2-360(p-T185/p-Y187)]-Avi was added to the plate
Description: The competition assays were performed at RT in a 384-well white polystyrene, flat bottom plate (Greiner #784075) using a final reaction volume of 15 μL and the following assay buffer conditions: 50 mM MOPS, pH 7.2, 10 mM MgCl2, 0.5 mM TCEP, 0.01% Triton-X-100. 75 nL of a 10 mM compound solution in DMSO or 100% DMSO (12 point titration, final concentration: 50 μM-300 pM; final DMSO: 0.5%) was added using an acoustic liquid handler (Echo, Beckman Coulter) to wells containing 7.5 μL of 1-(6-((R)-3-(1-(5-chloro-1-((tetrahydro-2H-pyran-4-yl)methyl)-1H-indole-3-carbonyl)-4-(4-fluorophenyl)piperidine-4-carboxamido)pyrrolidin-1-yl)-6-oxohexyl)-3,3-dimethyl-5-sulfo-2-((1E,3E)-5-((E)-1,3,3-trimethyl-5-sulfoindolin-2-ylidene)penta-1,3-dien-1-yl)-3H-indol-1-ium (Example 15); 7.5 μL 400 pM SA-Tb (Cisbio, 610SATLB) and 400 pM ERK2[2-360(p-T185/p-Y187)]-Avi was added to the plate and incubated overnight at RT. HTRF signal was measured using a microplate reader (PheraStar, BMG Labtech) with excitation and emission wavelengths of […], respectively. The inhibitor dose-response curves were analyzed from the HTRF ratio signal using normalized IC50 regression curve fitting with control-based normalization.

[2] = biological target: T2, nanobit-large-bit-ERK2 and nanobit-small-bit-PEA15 in WM793 cells (Homo sapiens, UniProt P28482); test: NanoBiT assay; assay type: cell-based; conditions: WM793 nanobit stable cell line, overnight incubation; read-out: NanoBiT qualified absolute AC50
T2 construct: expressed in transfected cells
Description: (§1) Cancer cell media was prepared by adding 500 mL of RPMI (ThermoFisher cat ##22400-089) and 10% Fetal Bovine Serum (Gibco) for WM793 cells (ATCC Cat #CRL-2806, RRID: CVCL 8787) and F12K (Thermo Fisher cat #21127-022, 500 mL; or 21127-030, 10×500 mL)+10% FBS for PC3 (ATCC CRL-1435) cells. The entire media with supplements was filter sterilized through a 0.4 μm bottle top filter system. Cancer cell lines were detached from traditional cell culture flasks by washing three times with 1×PBS and adding an appropriate amount of 0.25% TrypLE™ Express Enzyme (1×), no phenol red (ThermoFisher cat #12604013) to create a thin layer over the cells. Trypsin was neutralized with media containing serum and proceeded to count the cells.
A nanobit stable cell line was generated using WM793 cells with nanobit-large-bit-ERK2 and nanobit-small-bit-PEA15. […] In a biological safety cabinet, cells were seeded using a sterilized small stainless steel tipped cassette on a Multi-drop Combi. Between different cell lines, the tubing of the cassette was flushed with 1× sterile PBS for 10 s. Alternatively, cells can be seeded using a Multi-flow located within a Hepa filtered robotics room using either a sterilized small sapphire jewel tipped cassette and the peristatic pump, or the attached syringe pump, depending on volume of plates per cell line needed. The plates were placed in an incubator set at 37° C., with 5% CO2 and 95% relative humidity. A 10-point, 3-fold serial dilution of compounds was prepared in 100% DMSO on a liquid handling robot with a 10 mM top concentration. 90 nl/well was dispensed in three assay plates/1 compound source plate, with the highest concentration at 30 μM. After addition of compound was complete, the plates were placed into an incubator at 37° C., with 5% CO2 and 95% relative humidity for overnight. Luminescence was captured on a plate luminometer such as an Envision or View Lux to measure Day 0 time point both select cell lines. LUM plus, gain 3500, 0.1 s and focal height 12.5 [mm] on PheraStar reader. The raw data was extracted from the instrument and normalized all fields containing test compounds to the average of all wells containing DMSO alone as neutral control. From this value, the percent growth inhibition was calculated for each compound. Dose response curves and inhibitory IC50s were generated by graphing the normalized data values against the compound concentration using either a program such as GraphPad™ or Excel Fit.

WM793 cells = test: Cell proliferation assay (CellTiter-Glo); assay type: cell-based; conditions: 3 d, read-out: Cell proliferation qualified AC50
Description: as §1
After counting the cells, the concentration of the cell solution was adjusted to seed a total of 750 cells per well in 50 μL of complete media into 384-well tissue culture treated plates. In a biological safety cabinet, cells were seeded using a sterilized small stainless steel tipped cassette on a Multi-drop Combi. Between different cell lines, the tubing of the cassette was flushed with 1× sterile PBS for 10 seconds. Alternatively, cells can be seeded using a Multi-flow located within a Hepa filtered robotics room using either a sterilized small sapphire jewel tipped cassette and the peristatic pump, or the attached syringe pump, depending on volume of plates per cell line needed. The plates were placed in an incubator set at 37° C., with 5% CO2 and 95% relative humidity. A 10-point, 3-fold serial dilutions of compounds in 100% DMSO was prepared on a liquid handling robot with a 10 mM top concentration. 100 nL/well in three assay plates/1 compound was dispensed to source plate, with the highest concentration at 20 μM. After addition of compound was complete, plates were placed into an incubator at 37° C., with 5% CO2 and 95% relative humidity for 3 d. An adequate volume of CellTiter-Glo® (Promega #G7571) detection reagent was pre-warmed to RT or in a 37° C. H2O bath. 25 μL of the reagent was added to each well using either a Multi-drop Combi or MultiFlo and incubate at RT for at least 15 min. Luminesce was captured on a plate luminometer such as an Envision or View Lux to measure Day 0 time point both select cell lines. LUM plus, gain 3500, 0.1 s and focal height 12.5 mm on PheraStar reader. At Day 3, an adequate volume of CellTiter-Glo® detection reagent was pre-warmed at RT or in a 37° C. H2O bath. A total of 25 μL of the reagent was added to each well using either a Multi-drop Combi or MultiFlo and incubate at RT for at least 15 min. Luminesce was captured on a plate luminometer such as an Envision or View Lux to measure Day 3 time point both select cell lines. LUM plus, gain 3500, 0.1 s and focal height 12.5 mm on PheraStar reader. Raw data was extracted from the instrument and all fields containing test compounds were normalized to the average of all wells containing DMSO alone from Day 3 as neutral control and Day 0 starting numbers. From this value, percent growth inhibition of each compound was calculated. Dose response curves and growth inhibitory IC50s were generated by graphing the normalized data values against the compound concentration using a program such as GraphPad™ or Excel Fit.

T2 sequence (P28482 whole entry): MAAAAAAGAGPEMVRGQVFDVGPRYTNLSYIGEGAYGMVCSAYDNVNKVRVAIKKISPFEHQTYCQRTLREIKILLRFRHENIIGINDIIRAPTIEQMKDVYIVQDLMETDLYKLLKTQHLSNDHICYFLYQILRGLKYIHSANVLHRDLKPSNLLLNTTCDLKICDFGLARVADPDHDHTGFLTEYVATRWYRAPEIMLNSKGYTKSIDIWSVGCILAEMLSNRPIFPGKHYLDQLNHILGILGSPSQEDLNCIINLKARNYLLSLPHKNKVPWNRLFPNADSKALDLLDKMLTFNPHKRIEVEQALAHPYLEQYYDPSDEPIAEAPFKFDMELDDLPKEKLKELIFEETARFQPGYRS
T1 sequence (P28482 2-360 limits assumed): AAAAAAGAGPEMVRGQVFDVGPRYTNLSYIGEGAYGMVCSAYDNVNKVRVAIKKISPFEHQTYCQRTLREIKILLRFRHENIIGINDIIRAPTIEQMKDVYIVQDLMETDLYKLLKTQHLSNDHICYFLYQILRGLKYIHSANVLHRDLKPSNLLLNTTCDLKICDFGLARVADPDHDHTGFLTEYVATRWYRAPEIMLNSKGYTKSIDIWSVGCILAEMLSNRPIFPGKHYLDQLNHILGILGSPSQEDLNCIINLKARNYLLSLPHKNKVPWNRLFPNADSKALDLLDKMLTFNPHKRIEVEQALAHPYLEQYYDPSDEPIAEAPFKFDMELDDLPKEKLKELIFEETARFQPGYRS

| SMILES | AC50 [1] | AC50 [2] | AC50 (WM793 cells; Homo sapiens, WM793, 72 h) | AC50 (WM793 cells) |
| --- | --- | --- | --- | --- |
| CC(C)O[C@H]1CC[C@H](C2CN(C(=O)N3CC[C@@](C(=O)N[C@H]4CC[C@H](C(=O)O)C[C@@H]4C)(c4ccc(F)cc4)C[C@@H]3C)c3cc(F)ccc32)CC1 (single isomer, unassigned) [Example 4c] | 3.9 nM | 1200 nM | 410 nM |  |
| C[C@H]1C[C@@H](C(=O)O)CC[C@@H]1NC(=O)[C@@]1(c2ccc(F)cc2)CCN(C(=O)N2CCc3ccc(F)cc32)[C@@H](C)C1 [Example 4b] | 0.32 nM | 260 nM | 220 nM |  |
| CN1CC[C@@H](NC(=O)C2(c3ccc(Cl)cc3)CCN(C(=O)c3c(C=O)n(CC4CCOCC4)c4ccc(Cl)cc34)CC2)C1 [Example 11b] | 0.65 nM | 560 nM | 220 nM |  |
| CCc1c(C[C@H]2CC[C@H](OC3CCOCC3)CC2)c2ccc(F)cc2n1C(=O)N1CCC(C(=O)N[C@H]2C[C@H](C(=O)O)C[C@@H]2C)(c2ccc(F)cc2)CC1 [Example 1d] | < 0.28 nM | 300 nM | 110 nM |  |
| CN1CC[C@@H](NC(=O)C2(c3ccccc3)CCN(C(=O)c3c(C=O)n(CC4CCOCC4)c4ccc(Cl)cc34)CC2)C1 [Example 11a] | 0.87 nM |  | 300 nM |  |
| C[C@H]1C[C@@H](C(=O)O)CC[C@@H]1NC(=O)C1(c2ccc(F)cc2)CCN(C(=O)n2c3c(c4ccc(F)cc42)[C@H](c2ccccc2)OCC3)CC1 (single isomer, unassigned) [Example 10a] | 0.35 nM | 88 nM | 77 nM |  |
| Cc1c(C[C@H]2CC[C@H](OC(C)C)CC2)c2ccc(F)cc2n1C(=O)N1CCC(C(=O)N[C@H]2CC[C@H](C(=O)O)C[C@@H]2C)(c2ccc(F)cc2)CC1 [Example 1, (1S,3S,4S)-4-(1-(6-fluoro-3-(((1r,4S)-4-isopropoxycyclohexyl)methyl)-2-methyl-1H-indole-1-carbonyl)-4-(4-fluorophenyl)piperidine-4-carboxamido)-3-methylcyclohexane-1-carboxylic acid] | 0.33 nM | 100 nM |  | 110 nM |
| CCc1c(C[C@H]2CC[C@H](OC3CCOCC3)CC2)c2ccc(F)cc2n1C(=O)N1CC[C@@](C(=O)N[C@H]2CC[C@H](C(=O)O)C[C@@H]2C)(c2ccc(F)c(F)c2)C[C@@H]1C [Example 1a] | < 0.28 nM | 160 nM | 10 nM |  |
| CN1CC[C@@H](NC(=O)C2(c3ccc(F)cc3)CCN(C(=O)c3cn(CC4CCOCC4)c4ccc(Br)cc34)CC2)C1 [Example 11, (R)-1-(5-bromo-1-((tetrahydro-2H-pyran-4-yl)methyl)-1H-indole-3-carbonyl)-4-(4-fluorophenyl)-N-(1-methylpyrrolidin-3-yl)piperidine-4-carboxamide] | 18 nM | 4900 nM | 2700 nM |  |
| CN1CCC(NC(=O)C2(c3ccc(F)cc3)CCN(C(=O)c3c(C=O)n(CC4CCOCC4)c4ccc(Cl)cc34)CC2)CC1 [Example 11d] |  |  | 430 nM |  |
| CN1C[C@@H](F)[C@@H](NC(=O)C2(c3ccc(F)cc3)CCN(C(=O)c3c(C(F)F)n(CC4CCOCC4)c4ccc(Cl)cc34)CC2)C1 [Example 11i] | 0.72 nM |  | 54 nM |  |
| Cc1c(C(=O)N2CCC(C(=O)N[C@H]3CN(C)C[C@H]3F)(c3ccc(F)cc3)CC2)c2cc(Cl)ccc2n1CC1CCOCC1 [Example 12, 1-(5-chloro-2-methyl-1-((tetrahydro-2H-pyran-4-yl)methyl)-1H-indole-3-carbonyl)-N-((3S,4R)-4-fluoro-1-methylpyrrolidin-3-yl)-4-(4-fluorophenyl)piperidine-4-carboxamide] | 1.3 nM | 350 nM | 270 nM |  |
| CCc1c(C[C@H]2CC[C@H](OC3CCOCC3)CC2)c2ccc(F)cc2n1C(=O)N1CCC(C(=O)N[C@H]2CC[C@H](C(=O)O)C[C@@H]2C)(c2ccc(Cl)nc2)CC1 [Example 1k] | 0.48 nM | 250 nM | 33 nM |  |
| CO[C@H]1CC[C@H](Cc2c(C)n(C(=O)N3CCC(C(=O)N[C@H]4CC[C@H](C(=O)O)CC4)(c4ccc(F)cc4)CC3)c3cc(F)ccc23)CC1 [Example 1c] | 1.3 nM | 390 nM | 940 nM |  |
| CN1C[C@@H](F)[C@@H](NC(=O)C2(c3ccc(F)cc3)CCN(C(=O)c3c(C#N)n(CC4CCOCC4)c4ccc(Cl)cc34)CC2)C1 [Example 11j] | 0.97 nM |  | 730 nM |  |
| COCCc1c(C[C@H]2CC[C@H](OC(C)C)CC2)c2cc(F)c(F)cc2n1C(=O)N1CCC(C(=O)N[C@H]2CC[C@H](C(=O)O)C[C@@H]2C)(c2ccc(F)cc2)CC1 [Example 1f] | < 0.28 nM | 140 nM | 52 nM |  |
| O=Cc1c(C(=O)N2CCC(C(=O)N[C@H]3CNC[C@H]3F)(c3ccc(F)cc3)CC2)c2cc(Cl)ccc2n1CC1CCOCC1 [Example 14, 1-(5-chloro-2-formyl-1-((tetrahydro-2H-pyran-4-yl)methyl)-1H-indole-3-carbonyl)-4-(4-fluorophenyl)-N-((3S,4R)-4-fluoropyrrolidin-3-yl)piperidine-4-carboxamide] | 0.48 nM |  | 120 nM |  |
| CN1CC[C@@H](NC(=O)C2(c3ccc(F)cc3)CCN(C(=O)c3c(C=O)n(CC4CCOCC4)c4ccc(Cl)cc34)CC2)C1 [Example 11f] |  |  | 140 nM |  |
| CN1CC(NC(=O)C2(c3ccc(F)cc3)CCN(C(=O)c3c(C=O)n(CC4CCOCC4)c4ccc(Cl)cc34)CC2)C1 [Example 11e] |  |  | 290 nM |  |
| C[C@H]1[C@@H](NC(=O)C2(c3ccc(F)cc3)CCN(C(=O)c3c(C=O)n(CC4CCOCC4)c4ccc(Cl)cc34)CC2)CN1C [Example 11c] |  |  | 17 nM |  |
